The results in this text go back to patent publication US7307102B2, “Method of preventing or treating estrogen-dependent diseases and disorders” (Duke University, priority 1997, dated 2007).

The test system of one data set is ER-TAF1. The data set is described as follows: C3 promoter-luciferase cotransfection assay in HepG2 cells, ER-TAF1 (AF-2 disrupted). Format: cell-based, human. From the text:
FIGS. 1A and 1B. […] The human C3 promoter (−1807 to +58) fused to the firefly luciferase reporter gene was transfected along with an expression plasmid containing (FIG. 1A) the wild-type human estrogen receptor (ERwt), or (FIG. 1B) a mutated ER in which the AF-2 function had been disrupted (ER-TAFl) into HepG2 cells and tested for transcriptional activation in the presence of increasing concentrations of ER-modulator as indicated. Transfections were normalized for efficiency and cell number by cotransfecting an expression plasmid containing β-galactosidase. The normalized response was obtained by dividing light units by the activity of β-galactosidase as measured in an enzymatic assay. Triplicate transfections were performed. The data shown are representative of multiple experiments performed under similar conditions.
FIGS. 2A-2C. […] FIG. 2A. […] FIG. 2B. […] FIG. 2C. […] Transfections were normalized for efficiency and cell number by cotransfecting an expression plasmid containing β-galactosidase. The normalized response was obtained by dividing light units by the activity of β-galactosidase as measured in an enzymatic assay. Representative assays are shown in which triplicate transfections were performed. Error bars represent the standard error of the mean (SEM).
HepG2 cells were maintained in Modified Eagles Medium (MEM) (Life Technologies, Grand Island, N.Y.) plus 10% Fetal Calf Serum (FCS) (Life Technologies). Cells were plated in 24 well plates (coated with gelatin) 24 hours prior to transfection. DNA was introduced into the cells using Lipofectin (Life Technologies). Briefly, triplicate transfections were performed using 3 μg of total DNA. For standard transfections, 500 ng of pCMV-β-Gal (normalization vector), 1500 ng reporter (variable) and 1000 ng receptor (pRST7-hER (Dana et al, Mol. Endocrinol. 8:1193-1207 (1994)) were used for each triplicate. Incubation of the cells with Lipofectin proceeded for 3 hrs, at which time media was removed, cells were washed with PBS and then induced with the appropriate hormone diluted in phenol red-free media containing 10% charcoal stripped CS (Cyclone Inc.). Incubation with hormone continued for 48 hrs, after which cells were lysed and assayed for luciferase and β-galactosidase activity as previously described (Norris et al, JBC 270:22777-22782 (1995)).
A series of in vitro screens have been developed that permit the classification of ER-modulators into four mechanistically distinct groups (Tzukerman et al, Mol. Endocrinol. 8:21-30 (1994)). […] Using these assays, it has been possible to derive “fingerprints” of known ER-modulators (McDonnell et al, Mol. Endocrinol. 9:659-669 (1995)).
Subsequently, the transfected cells were assayed for luceriferase and β-galactosidase activity. Each data point in this experiment represents the average of triplicate determinations of the transcriptional activity under given experimental conditions.

The test system of data set [1] is MCF-7 breast cancer tumors. The data set is described as follows: Antiestrogen treatment of MCF-7 breast cancer tumors in nude mice (Example 4). Format: in vivo, mouse. The conditions noted are these: two highest doses of GW5638 (0.6 mg, 1.0 mg) vs 1.0 mg tamoxifen, FIG. 9. How it is done: FIG. 9. Effect of anti-estrogen treatment on MCF-7 breast cancer tumors in nude mice.
This study was conducted using tumor cells derived from the MCF-7 breast cancer line. This line is estrogen and progesterone receptor positive, dependent upon hormone and sensitive to antihormones. The tumor cells were inoculated into the flank of ovariectomized, athymic BALB/c Urd nunu mice. The mice were supplemented with slow release estrogen pellets. Animals were given subcutaneous daily injections as indicated below:
Group 1: control (corn oil)
Using calipers, tumors were measured in 2 dimensions, where tumor area=½×w/2×π.

The nature of data set [2]: Uterine wet weight, body weight and uterine histology in ovariectomized rats, 28 day treatment. It is filed as in vivo, rat. How it is done:
FIGS. 8A-8D. […] Photographs were taken at 150× magnification and subsequently enlarged to a final magnification of 600×.
Animal preparation. […] At sacrifice, animals were euthanized with C02, body weights were recorded and the uteri were removed and weighed. Uterus, vagina and mammary tissue were fixed in 10% neutral buffered formalin. Samples for histologic processing were taken from the mid-point of each uterine horn. Tissue samples were embedded in paraffin, stained with haematoxylin and eosin and evaluated microscopically. Lumbar vertebrae and both left and right tibiae were excised. Total blood cholesterol was measured (Roche Biomedical Laboratories).
In addition to measurements of uterine wet weight, a histological examination of the uteri harvested from the same animals was performed (FIGS. 7A-7F (low magnification) and FIGS. 8A-8D (high magnification)).

Regarding `CC/C(=C(\c1ccccc1)c1ccc(/C=C/C(=O)O)cc1)c1ccccc1` [GW5638], in the data set on ER-TAF1 (ER-TAF1), the “inhibition of the partial agonist activity of raloxifene on ER-TAF1” value was “inhibited”. Besides, the “inhibition of estradiol- and tamoxifen-induced ER-TAF1 transcriptional activity” value in the data set with ER-TAF1 (ER-TAF1, FIG. 2B) is recorded as “capable of inhibiting”. The “agonist activity on ER-TAF1” value in the data set on ER-TAF1 (ER-TAF1, compound alone, FIG. 1B) is “functionally inactive”. Also, the “effect on tumors compared with tamoxifen” value in data set [1] is “no significant difference”. Besides, the “uterotrophic activity (uterine wet weight)” value in data set [2] (90-day old OVX rats, 28 days, doses up to three times that required for bone protection, FIG. 6) was “minimal uterotrophic activity”. In data set [2] (OVX rats, 28 days), the “total body weight versus sham operated animals” value was “no significant differences”; the “uterine epithelial cells, histology” value was “dose-related hypertrophy”; the “uterine stroma, histology” value was “marginal increase in intercellular connective tissue and ground substance”. The “stromal response and eosinophilic infiltration at the highest doses” value in data set [2] (OVX rats, highest doses) is given as “less than observed in estradiol treated rats”. In data set [2] (OVX rats, highest doses (3-fold higher than required for bone protection)), the “epithelial hypertrophy at the highest doses” value is on record as “comparable to that of estradiol treated uteri”.
